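Results reflect a 48-hour exposure of cells in 96-well plates to compound at five concentrations. TGI marks complete inhibition of growth.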
System: 786-0 renal
Assay: NCI tumour cell line growth inhibition, 48 h

SMILES | TGI
O=C(Cn1nnc(-c2ccccc2)n1)N/N=C/c1cn(Cc2ccc(Cl)cc2Cl)c2ccccc12 | > 100 µM
CC(C)N(C(=O)C12C3(C(=O)OC(C)(C)C)C4C5(C#N)C3C1(C(=O)OC(C)(C)C)C5C42C(=O)OC(C)(C)C)C(C)C (stereo not given) | > 100 µM
CCOC(=O)N1CCC2(CC1)CC(=O)N(Nc1ccccc1)C2=O | > 100 µM
O=C1CNN=C(CSc2nc3ccc(I)cc3c(=O)n2Cc2ccccc2)N1 | > 100 µM
[N-]=[N+]=NCC1OCC(O)C(OCc2ccccc2)C1OCc1ccccc1 (stereo not given) | > 100 µM

System: A498 renal
Assay: NCI tumour cell line growth inhibition, 48 h

SMILES | TGI
O=C(Cn1nnc(-c2ccccc2)n1)N/N=C/c1cn(Cc2ccc(Cl)cc2Cl)c2ccccc12 | > 100 µM
CC(C)N(C(=O)C12C3(C(=O)OC(C)(C)C)C4C5(C#N)C3C1(C(=O)OC(C)(C)C)C5C42C(=O)OC(C)(C)C)C(C)C (stereo not given) | > 100 µM
CCOC(=O)N1CCC2(CC1)CC(=O)N(Nc1ccccc1)C2=O | > 100 µM
O=C1CNN=C(CSc2nc3ccc(I)cc3c(=O)n2Cc2ccccc2)N1 | 94.1 µM
[N-]=[N+]=NCC1OCC(O)C(OCc2ccccc2)C1OCc1ccccc1 (stereo not given) | > 100 µM

System: A549 NSCLC
Assay: NCI tumour cell line growth inhibition, 48 h

SMILES | TGI
O=C(Cn1nnc(-c2ccccc2)n1)N/N=C/c1cn(Cc2ccc(Cl)cc2Cl)c2ccccc12 | > 100 µM
CC(C)N(C(=O)C12C3(C(=O)OC(C)(C)C)C4C5(C#N)C3C1(C(=O)OC(C)(C)C)C5C42C(=O)OC(C)(C)C)C(C)C (stereo not given) | > 100 µM
CCOC(=O)N1CCC2(CC1)CC(=O)N(Nc1ccccc1)C2=O | > 100 µM
O=C1CNN=C(CSc2nc3ccc(I)cc3c(=O)n2Cc2ccccc2)N1 | > 100 µM
[N-]=[N+]=NCC1OCC(O)C(OCc2ccccc2)C1OCc1ccccc1 (stereo not given) | > 100 µM

System: ACHN renal
Assay: NCI tumour cell line growth inhibition, 48 h

SMILES | TGI
O=C(Cn1nnc(-c2ccccc2)n1)N/N=C/c1cn(Cc2ccc(Cl)cc2Cl)c2ccccc12 | > 100 µM
CC(C)N(C(=O)C12C3(C(=O)OC(C)(C)C)C4C5(C#N)C3C1(C(=O)OC(C)(C)C)C5C42C(=O)OC(C)(C)C)C(C)C (stereo not given) | > 100 µM
CCOC(=O)N1CCC2(CC1)CC(=O)N(Nc1ccccc1)C2=O | > 100 µM
O=C1CNN=C(CSc2nc3ccc(I)cc3c(=O)n2Cc2ccccc2)N1 | 31.6 µM
[N-]=[N+]=NCC1OCC(O)C(OCc2ccccc2)C1OCc1ccccc1 (stereo not given) | > 100 µM

System: BT-549 breast
Assay: NCI tumour cell line growth inhibition, 48 h

SMILES | TGI
O=C(Cn1nnc(-c2ccccc2)n1)N/N=C/c1cn(Cc2ccc(Cl)cc2Cl)c2ccccc12 | > 100 µM
CC(C)N(C(=O)C12C3(C(=O)OC(C)(C)C)C4C5(C#N)C3C1(C(=O)OC(C)(C)C)C5C42C(=O)OC(C)(C)C)C(C)C (stereo not given) | > 100 µM
CCOC(=O)N1CCC2(CC1)CC(=O)N(Nc1ccccc1)C2=O | > 100 µM
O=C1CNN=C(CSc2nc3ccc(I)cc3c(=O)n2Cc2ccccc2)N1 | 86.3 µM
[N-]=[N+]=NCC1OCC(O)C(OCc2ccccc2)C1OCc1ccccc1 (stereo not given) | > 100 µM

System: CAKI-1 renal
Assay: NCI tumour cell line growth inhibition, 48 h

SMILES | TGI
O=C(Cn1nnc(-c2ccccc2)n1)N/N=C/c1cn(Cc2ccc(Cl)cc2Cl)c2ccccc12 | > 100 µM
CC(C)N(C(=O)C12C3(C(=O)OC(C)(C)C)C4C5(C#N)C3C1(C(=O)OC(C)(C)C)C5C42C(=O)OC(C)(C)C)C(C)C (stereo not given) | > 100 µM
CCOC(=O)N1CCC2(CC1)CC(=O)N(Nc1ccccc1)C2=O | > 100 µM
O=C1CNN=C(CSc2nc3ccc(I)cc3c(=O)n2Cc2ccccc2)N1 | 34.3 µM
[N-]=[N+]=NCC1OCC(O)C(OCc2ccccc2)C1OCc1ccccc1 (stereo not given) | > 100 µM

System: CCRF-CEM leukemia
Assay: NCI tumour cell line growth inhibition, 48 h

SMILES | TGI
O=C(Cn1nnc(-c2ccccc2)n1)N/N=C/c1cn(Cc2ccc(Cl)cc2Cl)c2ccccc12 | > 100 µM
CC(C)N(C(=O)C12C3(C(=O)OC(C)(C)C)C4C5(C#N)C3C1(C(=O)OC(C)(C)C)C5C42C(=O)OC(C)(C)C)C(C)C (stereo not given) | 30.9 µM
CCOC(=O)N1CCC2(CC1)CC(=O)N(Nc1ccccc1)C2=O | > 100 µM
O=C1CNN=C(CSc2nc3ccc(I)cc3c(=O)n2Cc2ccccc2)N1 | 50.5 µM
[N-]=[N+]=NCC1OCC(O)C(OCc2ccccc2)C1OCc1ccccc1 (stereo not given) | > 100 µM

System: COLO 205 colon
Assay: NCI tumour cell line growth inhibition, 48 h

SMILES | TGI
O=C(Cn1nnc(-c2ccccc2)n1)N/N=C/c1cn(Cc2ccc(Cl)cc2Cl)c2ccccc12 | > 100 µM
CC(C)N(C(=O)C12C3(C(=O)OC(C)(C)C)C4C5(C#N)C3C1(C(=O)OC(C)(C)C)C5C42C(=O)OC(C)(C)C)C(C)C (stereo not given) | > 100 µM
CCOC(=O)N1CCC2(CC1)CC(=O)N(Nc1ccccc1)C2=O | > 100 µM
O=C1CNN=C(CSc2nc3ccc(I)cc3c(=O)n2Cc2ccccc2)N1 | 28.4 µM
[N-]=[N+]=NCC1OCC(O)C(OCc2ccccc2)C1OCc1ccccc1 (stereo not given) | > 100 µM

System: DU-145 prostate
Assay: NCI tumour cell line growth inhibition, 48 h

SMILES | TGI
O=C(Cn1nnc(-c2ccccc2)n1)N/N=C/c1cn(Cc2ccc(Cl)cc2Cl)c2ccccc12 | > 100 µM
CC(C)N(C(=O)C12C3(C(=O)OC(C)(C)C)C4C5(C#N)C3C1(C(=O)OC(C)(C)C)C5C42C(=O)OC(C)(C)C)C(C)C (stereo not given) | > 100 µM
CCOC(=O)N1CCC2(CC1)CC(=O)N(Nc1ccccc1)C2=O | > 100 µM
O=C1CNN=C(CSc2nc3ccc(I)cc3c(=O)n2Cc2ccccc2)N1 | 53.4 µM
[N-]=[N+]=NCC1OCC(O)C(OCc2ccccc2)C1OCc1ccccc1 (stereo not given) | > 100 µM

System: EKVX NSCLC
Assay: NCI tumour cell line growth inhibition, 48 h

SMILES | TGI
O=C(Cn1nnc(-c2ccccc2)n1)N/N=C/c1cn(Cc2ccc(Cl)cc2Cl)c2ccccc12 | > 100 µM
CC(C)N(C(=O)C12C3(C(=O)OC(C)(C)C)C4C5(C#N)C3C1(C(=O)OC(C)(C)C)C5C42C(=O)OC(C)(C)C)C(C)C (stereo not given) | > 100 µM
CCOC(=O)N1CCC2(CC1)CC(=O)N(Nc1ccccc1)C2=O | > 100 µM
O=C1CNN=C(CSc2nc3ccc(I)cc3c(=O)n2Cc2ccccc2)N1 | > 100 µM
[N-]=[N+]=NCC1OCC(O)C(OCc2ccccc2)C1OCc1ccccc1 (stereo not given) | > 100 µM

System: HCC-2998 colon
Assay: NCI tumour cell line growth inhibition, 48 h

SMILES | TGI
CC(C)N(C(=O)C12C3(C(=O)OC(C)(C)C)C4C5(C#N)C3C1(C(=O)OC(C)(C)C)C5C42C(=O)OC(C)(C)C)C(C)C (stereo not given) | > 100 µM
CCOC(=O)N1CCC2(CC1)CC(=O)N(Nc1ccccc1)C2=O | > 100 µM
O=C1CNN=C(CSc2nc3ccc(I)cc3c(=O)n2Cc2ccccc2)N1 | 81.7 µM
[N-]=[N+]=NCC1OCC(O)C(OCc2ccccc2)C1OCc1ccccc1 (stereo not given) | > 100 µM

System: HCT-116 colon
Assay: NCI tumour cell line growth inhibition, 48 h

SMILES | TGI
O=C(Cn1nnc(-c2ccccc2)n1)N/N=C/c1cn(Cc2ccc(Cl)cc2Cl)c2ccccc12 | > 100 µM
CC(C)N(C(=O)C12C3(C(=O)OC(C)(C)C)C4C5(C#N)C3C1(C(=O)OC(C)(C)C)C5C42C(=O)OC(C)(C)C)C(C)C (stereo not given) | 73.5 µM
CCOC(=O)N1CCC2(CC1)CC(=O)N(Nc1ccccc1)C2=O | > 100 µM
O=C1CNN=C(CSc2nc3ccc(I)cc3c(=O)n2Cc2ccccc2)N1 | 50.7 µM
[N-]=[N+]=NCC1OCC(O)C(OCc2ccccc2)C1OCc1ccccc1 (stereo not given) | > 100 µM

System: HCT-15 colon
Assay: NCI tumour cell line growth inhibition, 48 h

SMILES | TGI
O=C(Cn1nnc(-c2ccccc2)n1)N/N=C/c1cn(Cc2ccc(Cl)cc2Cl)c2ccccc12 | > 100 µM
CC(C)N(C(=O)C12C3(C(=O)OC(C)(C)C)C4C5(C#N)C3C1(C(=O)OC(C)(C)C)C5C42C(=O)OC(C)(C)C)C(C)C (stereo not given) | > 100 µM
CCOC(=O)N1CCC2(CC1)CC(=O)N(Nc1ccccc1)C2=O | > 100 µM
O=C1CNN=C(CSc2nc3ccc(I)cc3c(=O)n2Cc2ccccc2)N1 | > 100 µM
[N-]=[N+]=NCC1OCC(O)C(OCc2ccccc2)C1OCc1ccccc1 (stereo not given) | > 100 µM

System: HL-60(TB) leukemia
Assay: NCI tumour cell line growth inhibition, 48 h

SMILES | TGI
O=C(Cn1nnc(-c2ccccc2)n1)N/N=C/c1cn(Cc2ccc(Cl)cc2Cl)c2ccccc12 | > 100 µM
CC(C)N(C(=O)C12C3(C(=O)OC(C)(C)C)C4C5(C#N)C3C1(C(=O)OC(C)(C)C)C5C42C(=O)OC(C)(C)C)C(C)C (stereo not given) | > 100 µM
CCOC(=O)N1CCC2(CC1)CC(=O)N(Nc1ccccc1)C2=O | > 100 µM
O=C1CNN=C(CSc2nc3ccc(I)cc3c(=O)n2Cc2ccccc2)N1 | 4.03 µM
[N-]=[N+]=NCC1OCC(O)C(OCc2ccccc2)C1OCc1ccccc1 (stereo not given) | > 100 µM

System: HOP-62 NSCLC
Assay: NCI tumour cell line growth inhibition, 48 h

SMILES | TGI
O=C(Cn1nnc(-c2ccccc2)n1)N/N=C/c1cn(Cc2ccc(Cl)cc2Cl)c2ccccc12 | > 100 µM
